Data from patent US20240217978A1 (CHONG KUN DANG PHARMACEUTICAL CORP., priority 2021, published 2024).

Biological target: human adenosine A2a receptor (Homo sapiens (Human), UniProt P29274)
Assay: A2a receptor binding affinity, [3H]-NECA radioligand binding test
Conditions: [3H]-NECA 37 nM; membrane from HEK-293 cells transfected with human adenosine A2a receptor
Method in brief: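 Membranes from HEK-293 cells expressing human A2a receptor were incubated with [3H]-NECA (final 37 nM) and compound for 1 h at room temperature in 50 mM Tris, 10 mM MgCl2, 1 mM EDTA, pH 7.4. Bound ligand was filtered on PEI-coated plates and counted by scintillation to derive IC50 (μM).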

Sequence of human adenosine A2a receptor (P29274 whole entry): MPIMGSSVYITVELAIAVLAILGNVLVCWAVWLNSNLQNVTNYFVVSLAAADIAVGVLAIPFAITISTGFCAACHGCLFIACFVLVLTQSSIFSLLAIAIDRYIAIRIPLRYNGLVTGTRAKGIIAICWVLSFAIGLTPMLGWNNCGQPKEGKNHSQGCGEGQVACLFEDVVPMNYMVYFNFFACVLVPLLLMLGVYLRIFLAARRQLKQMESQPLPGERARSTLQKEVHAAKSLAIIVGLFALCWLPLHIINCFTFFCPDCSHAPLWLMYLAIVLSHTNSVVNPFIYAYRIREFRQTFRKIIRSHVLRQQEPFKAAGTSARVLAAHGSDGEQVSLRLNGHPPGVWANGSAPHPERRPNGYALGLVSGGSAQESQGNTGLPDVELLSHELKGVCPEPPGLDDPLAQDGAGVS

## CCCCN1CCN(C(=O)[C@@H]2CCCN2c2nc(N)n3nc(-c4ccc(C)o4)nc3n2)CC1 [Example 189, (S)-(1-(7-amino-2-(5-methylfuran-2-yl)-[1,2,4]triazolo[1,5-a][1,3,5]triazin-5-yl)pyrrolidin-2-yl)(4-butylpiperazin-1-yl)methanone]
  IC50: 9 nM

## Nc1nc(N2CCC[C@H]2C(=O)N2CCN(C3CCCCC3)CC2)nc2nc(-c3ccco3)nn12 [Example 54]
  IC50: 6 nM

## Cc1ccc(-c2nc3nc(N4CCC[C@H]4C(=O)N4CCN(c5ncccn5)CC4)nc(N)n3n2)o1 [Example 203, (S)-(1-(7-amino-2-(5-methylfuran-2-yl)-[1,2,4]triazolo[1,5-a][1,3,5]triazin-5-yl)pyrrolidin-2-yl)(4-(pyrimidin-2-yl)piperazin-1-yl)methanone]
  IC50: 6 nM

## COC[C@H](Nc1nc(N)n2nc(-c3ccco3)nc2n1)C(=O)N1CCN(CC(F)(F)F)CC1 [Example 306, (S)-2-((7-amino-2-(furan-2-yl)-[1,2,4]triazolo[1,5-a][1,3,5]triazin-5-yl)amino)-3-methoxy-1-(4-(2,2,2-trifluoroethyl)piperazin-1-yl)propan-1-one]
  IC50: 30 nM

## Cc1ccc(-c2nc3nc(N4CC[C@H]4C(=O)N4CCN(c5ccc(F)cc5F)CC4)nc(N)n3n2)o1 [Example 209, (S)-(1-(7-amino-2-(5-methylfuran-2-yl)-[1,2,4]triazolo[1,5-a][1,3,5]triazin-5-yl)azetidin-2-yl)(4-(2,4-difluorophenyl)piperazin-1-yl)methanone]
  IC50: 1 nM

## Nc1nc(N2CC[C@H]2C(=O)N2CCN(CC(=O)N3CCOCC3)CC2)nc2nc(-c3ccco3)nn12 [Example 65, (S)-2-(4-(1-(7-amino-2-(furan-2-yl)-[1,2,4]triazolo[1,5-a][1,3,5]triazin-5-yl)azetidine-2-carbonyl)piperazin-1-yl)-1-morpholinoethan-1-one]
  IC50: 10 nM

## Nc1nc(N[C@@H](Cc2ccccc2)C(=O)N2CCC(Cc3ccccc3)CC2)nc2nc(-c3ccco3)nn12 [Example 2]
  IC50: 1 nM

## CCC(O)(CC)CN1CCN(C(=O)[C@@H]2CCCN2c2nc(N)n3nc(-c4ccc(C)o4)nc3n2)CC1 [Example 88, (S)-(1-(7-amino-2-(5-methylfuran-2-yl)-[1,2,4]triazolo[1,5-a][1,3,5]triazin-5-yl)pyrrolidin-2-yl)(4-(2-ethyl-2-hydroxybutyl)piperazin-1-yl) methanone]
  IC50: 12 nM

## Nc1nc(N2CCC[C@H]2C(=O)N2CCC(CN3CCC(C(F)(F)F)CC3)CC2)nc2nc(-c3ccco3)nn12 [Example 331, (S)-(1-(7-amino-2-(furan-2-yl)-[1,2,4]triazolo[1,5-a][1,3,5]triazin-5-yl)pyrrolidin-2-yl)(4-((4-(trifluoromethyl)piperidin-1-yl)methyl)piperidin-1-yl)methanone]
  IC50: 10 nM

## Nc1nc(N2CCC[C@H]2C(=O)N2CCC(N3CC(F)(F)C3)CC2)nc2nc(-c3ccco3)nn12 [Example 390, (S)-(1-(7-amino-2-(furan-2-yl)-[1,2,4]triazolo[1,5-a][1,3,5]triazin-5-yl)pyrrolidin-2-yl)(4-(3,3-difluoroazetidin-1-yl)piperidin-1-yl)methanone]
  IC50: 8 nM

## Nc1nc(N2CCC[C@H]2C(=O)N2CC3CCC(C2)N3Cc2ccc(F)cc2F)nc2nc(-c3ccco3)nn12 [Example 50, ((S)-1-(7-amino-2-(furan-2-yl)-[1,2,4]triazolo[1,5-a][1,3,5]triazin-5-yl)pyrrolidin-2-yl)(8-(2,4-difluorobenzyl)-3,8-diazabicyclo[3.2.1]octan-3-yl)methanone]
  IC50: 9 nM

## Nc1nc(N2CCC[C@H]2C(=O)N2CCN(C(=O)CC(F)(F)F)CC2)nc2nc(-c3ccco3)nn12 [Example 73, 1-(4-((7-amino-2-(furan-2-yl)-[1,2,4]triazolo[1,5-a][1,3,5]triazin-5-yl)-L-prolyl)piperazin-1-yl)-3,3,3-trifluoropropan-1-one]
  IC50: 11 nM

## Nc1nc(N2CCC[C@H]2C(=O)N2CCN(c3ccc(F)cc3F)CC2)nc2nc(-c3ccco3)nn12 [Example 12, (S)-(1-(7-amino-2-(furan-2-yl)-[1,2,4]triazolo[1,5-a][1,3,5]triazin-5-yl)pyrrolidin-2-yl)(4-(2,4-difluorophenyl)piperazin-1-yl)methanone]
  IC50: 1.43 nM

## Nc1nc(N2CCC[C@H]2C(=O)N2CCC(C3CCN(C(=O)Nc4ccccc4)CC3)CC2)nc2nc(-c3ccco3)nn12 [Example 184, 1′-((7-amino-2-(furan-2-yl)-[1,2,4]triazolo[1,5-a][1,3,5]triazin-5-yl)-L-prolyl)-N-phenyl-[4,4′-bipiperidine]-1-carboxamide]
  IC50: 12 nM

## CC(C)(C(=O)N1CCN(C(=O)[C@@H]2CCCN2c2nc(N)n3nc(-c4ccco4)nc3n2)CC1)C(F)(F)F [Example 86, 1-(4-((7-amino-2-(furan-2-yl)-[1,2,4]triazolo[1,5-a][1,3,5]triazin-5-yl)-L-prolyl)piperazin-1-yl)-3,3,3-trifluoro-2,2-dimethylpropan-1-one]
  IC50: 15 nM

## CC(C)[C@H](Nc1nc(N)n2nc(-c3ccco3)nc2n1)C(=O)N1CCN(Cc2ccc(F)cc2F)CC1 [Example 57, (S)-2-((7-amino-2-(furan-2-yl)-[1,2,4]triazolo[1,5-a][1,3,5]triazin-5-yl)amino)-1-(4-(2,4-difluorobenzyl)piperazin-1-yl)-3-methylbutan-1-one]
  IC50: 7 nM

## CC(C)(O)CC(=O)N1CCN(C(=O)[C@@H](Nc2nc(N)n3nc(-c4ccco4)nc3n2)C2CC2)CC1 [Example 370, (S)-1-(4-(2-((7-amino-2-(furan-2-yl)-[1,2,4]triazolo[1,5-a][1,3,5]triazin-5-yl)amino)-2-cyclopropylacetyl)piperazin-1-yl)-3-hydroxy-3-methylbutan-1-one]
  IC50: 4 nM

## Nc1nc(N[C@@H](CO)C(=O)N2CCN(Cc3ccccc3)CC2)nc2nc(-c3ccco3)nn12 [Example 233, (S)-2-((7-amino-2-(furan-2-yl)-[1,2,4]triazolo[1,5-a][1,3,5]triazin-5-yl)amino)-1-(4-benzylpiperazin-1-yl)-3-hydroxypropan-1-one]
  IC50: 14 nM

## C[C@@H]1CN(CC(F)(F)F)CCN1C(=O)[C@@H]1CCCN1c1nc(N)n2nc(-c3ccco3)nc2n1 [Example 205, ((S)-1-(7-amino-2-(furan-2-yl)-[1,2,4]triazolo[1,5-a][1,3,5]triazin-5-yl)pyrrolidin-2-yl)((R)-2-methyl-4-(2,2,2-trifluoroethyl)piperazin-1-yl)methanone]
  IC50: 7 nM

## CC(C)C[C@H](Nc1nc(N)n2nc(-c3ccco3)nc2n1)C(=O)N1CCN(CC(F)(F)F)CC1 [Example 215, (S)-2-((7-amino-2-(furan-2-yl)-[1,2,4]triazolo[1,5-a][1,3,5]triazin-5-yl)amino)-4-methyl-1-(4-(2,2,2-trifluoroethyl)piperazin-1-yl)pentan-1-one]
  IC50: 8 nM

## CC[C@H](Nc1nc(N)n2nc(-c3ccco3)nc2n1)C(=O)N1CCN(C(=O)CC(C)(C)O)CC1 [Example 368, (S)-1-(4-(2-((7-amino-2-(furan-2-yl)-[1,2,4]triazolo[1,5-a][1,3,5]triazin-5-yl)amino)butanoyl)piperazin-1-yl)-3-hydroxy-3-methylbutan-1-one]
  IC50: 3 nM

## CC(C)[C@H](Nc1nc(N)n2nc(-c3ccco3)nc2n1)C(=O)N1CCN(C(=O)CC(C)(C)O)CC1 [Example 369, 1-(4-((7-amino-2-(furan-2-yl)-[1,2,4]triazolo[1,5-a][1,3,5]triazin-5-yl)-L-valyl)piperazin-1-yl)-3-hydroxy-3-methylbutan-1-one]
  IC50: 14 nM

## Nc1nc(N2CCC[C@H]2C(=O)N2CCC(c3ccccc3)CC2)nc2nc(-c3ccco3)nn12 [Example 128, (S)-(1-(7-amino-2-(furan-2-yl)-[1,2,4]triazolo[1,5-a][1,3,5]triazin-5-yl)pyrrolidin-2-yl)(4-phenylpiperidin-1-yl)methanone]
  IC50: 3 nM

## Nc1nc(N2CC[C@H]2C(=O)N2CCN(c3ncccn3)CC2)nc2nc(-c3ccco3)nn12 [Example 242, (S)-(1-(7-amino-2-(furan-2-yl)-[1,2,4]triazolo[1,5-a][1,3,5]triazin-5-yl)azetidin-2-yl)(4-(pyrimidin-2-yl)piperazin-1-yl)methanone]
  IC50: 9 nM

## Cc1ccc(-c2nc3nc(N4CCC[C@H]4C(=O)N4CCN(CC(C)(C)F)CC4)nc(N)n3n2)o1 [Example 90, (S)-(1-(7-amino-2-(5-methylfuran-2-yl)-[1,2,4]triazolo[1,5-a][1,3,5]triazin-5-yl)pyrrolidin-2-yl)(4-(2-fluoro-2-methylpropyl)piperazin-1-yl)methanone]
  IC50: 8 nM

## CC(C)[C@H](Nc1nc(N)n2nc(-c3ccco3)nc2n1)C(=O)N1CCN(CC(C)(F)F)CC1 [Example 360, (S)-2-((7-amino-2-(furan-2-yl)-[1,2,4]triazolo[1,5-a][1,3,5]triazin-5-yl)amino)-1-(4-(2,2-difluoropropyl)piperazin-1-yl)-3-methylbutan-1-one]
  IC50: 10 nM

## C[C@@H]1CN(C(=O)c2ccccc2)CCN1C(=O)[C@@H]1CCCN1c1nc(N)n2nc(-c3ccco3)nc2n1 [Example 159, ((R)-4-((7-amino-2-(furan-2-yl)-[1,2,4]triazolo[1,5-a][1,3,5]triazin-5-yl)-L-prolyl)-3-methylpiperazin-1-yl)(phenyl)methanone]
  IC50: 9 nM

## Cc1ccc(-c2nc3nc(N4CCC[C@H]4C(=O)N4CCN(C5CCCCC5)CC4)nc(N)n3n2)o1 [Example 84, (S)-(1-(7-amino-2-(5-methylfuran-2-yl)-[1,2,4]triazolo[1,5-a][1,3,5]triazin-5-yl)pyrrolidin-2-yl)(4-cyclohexylpiperazin-1-yl)methanone]
  IC50: 14 nM

## CCCCN1CCN(C(=O)[C@@H]2CCCN2c2nc(N)n3nc(-c4ccco4)nc3n2)CC1=O [Example 247, 4-((7-amino-2-(furan-2-yl)-[1,2,4]triazolo[1,5-a][1,3,5]triazin-5-yl)-L-prolyl)-1-butylpiperazin-2-one]
  IC50: 2 nM
